Laboratory results taken from the NIST ThermoML archive (doi:10.1021/acs.jced.8b00537).

Assay: xn = mol fraction of the nth substance listed
Settings: 100 kPa, Liquid; for viscosity: Capillary tube (Ostwald / Ubbelohde) method; for speed of sound: Frequency=3 MHz, Single path-length method; for mass density: Vibrating tube method

C=CCn1cc[n+](C)c1.O=S(=O)([N-]S(=O)(=O)C(F)(F)F)C(F)(F)F + CCCO
Settings	mass density [kg/m3]	speed of sound [m/s]	viscosity [mPa·s]
293.15 K, x1 = 0.04962	915	1204.7	2.854
293.15 K, x1 = 0.1003	1005	1193.5	3.841
293.15 K, x1 = 0.1995	1136	1193.5	5.727
293.15 K, x1 = 0.2987	1228	1202.2	7.59
293.15 K, x1 = 0.399	1297	1210.6	9.85
293.15 K, x1 = 0.5003	1352	1221	12.17
293.15 K, x1 = 0.6007	1394	1227.5	15.66
293.15 K, x1 = 0.6971	1428	1234.7	19.1
293.15 K, x1 = 0.8024	1459	1241.9	24.1
293.15 K, x1 = 0.8974	1483	1246.5	30.62
293.15 K, x1 = 1	1505	1251.6	41.83
298.15 K, x1 = 0.04962	–	1189.4	–
298.15 K, x1 = 0.1003	–	1179	–
298.15 K, x1 = 0.1995	–	1180.2	–
298.15 K, x1 = 0.2987	–	1189.5	–
298.15 K, x1 = 0.399	–	1198.3	–
298.15 K, x1 = 0.5003	–	1208.9	–
298.15 K, x1 = 0.6007	–	1215.6	–
298.15 K, x1 = 0.6971	–	1222.9	–
298.15 K, x1 = 0.8024	–	1230.3	–
298.15 K, x1 = 0.8974	–	1235	–
298.15 K, x1 = 1	–	1240.2	–
303.15 K, x1 = 0.04962	906	1174	2.215
303.15 K, x1 = 0.1003	996	1164.6	2.899
303.15 K, x1 = 0.1995	1126	1167	4.266
303.15 K, x1 = 0.2987	1219	1176.9	5.633
303.15 K, x1 = 0.399	1287	1186	7.268
303.15 K, x1 = 0.5003	1341	1197	8.94
303.15 K, x1 = 0.6007	1384	1203.9	11.42
303.15 K, x1 = 0.6971	1418	1211.3	13.82
303.15 K, x1 = 0.8024	1449	1218.8	17.21
303.15 K, x1 = 0.8974	1472	1223.6	21.53
303.15 K, x1 = 1	1495	1228.9	28.51
308.15 K, x1 = 0.04962	902	1158.7	1.969
308.15 K, x1 = 0.1003	991	1150.4	2.555
308.15 K, x1 = 0.1995	1121	1153.9	3.74
308.15 K, x1 = 0.2987	1214	1164.4	4.928
308.15 K, x1 = 0.399	1282	1174	6.339
308.15 K, x1 = 0.5003	1336	1185.2	7.782
308.15 K, x1 = 0.6007	1379	1192.3	9.908
308.15 K, x1 = 0.6971	1413	1199.9	11.95
308.15 K, x1 = 0.8024	1444	1207.5	14.8
308.15 K, x1 = 0.8974	1467	1212.4	18.38
308.15 K, x1 = 1	1489	1217.8	23.96
313.15 K, x1 = 0.04962	898	1143.4	1.759
313.15 K, x1 = 0.1003	987	1136.2	2.266
313.15 K, x1 = 0.1995	1117	1140.9	3.302
313.15 K, x1 = 0.2987	1209	1152	4.344
313.15 K, x1 = 0.399	1277	1162	5.574
313.15 K, x1 = 0.5003	1331	1173.5	6.833
313.15 K, x1 = 0.6007	1374	1180.8	8.677
313.15 K, x1 = 0.6971	1408	1188.6	10.42
313.15 K, x1 = 0.8024	1439	1196.3	12.85
313.15 K, x1 = 0.8974	1462	1201.3	15.85
313.15 K, x1 = 1	1484	1206.8	20.41
318.15 K, x1 = 0.04962	893	1128.2	1.577
318.15 K, x1 = 0.1003	982	1122.1	2.021
318.15 K, x1 = 0.1995	1112	1128	2.938
318.15 K, x1 = 0.2987	1204	1139.7	3.858
318.15 K, x1 = 0.399	1272	1150.1	4.937
318.15 K, x1 = 0.5003	–	1161.8	6.043
318.15 K, x1 = 0.6007	–	1169.4	7.657
318.15 K, x1 = 0.6971	–	1177.4	9.174
318.15 K, x1 = 0.8024	–	1185.2	11.26
318.15 K, x1 = 0.8974	–	1190.4	13.81
318.15 K, x1 = 1	–	1196	17.51
